Where “and” joins values, the source holds several entries; their conditions need not be identical. Identical values can stand only once. Entries after “also recorded” stand apart in the source; their conditions may differ.
Columns and labels:
[1] = tested on: hematological tumor cell lines (K562, IM9, Karpas-422, Balm-3, U266, REH, Ramos, MEC-1); assay: 51Chromium release assay, peptide-specific CTL on tumor cell lines; type: cell-based, human; conditions: for cytolytic activity of peptide-specific CTL lines: HLA-A*0201+ hematological tumor lines, primary malignant AML blasts and CLL cells; for recognition of cell lines by peptide-specific T cells: K562, IND/IM9, Karpas-422, Balm-3, U266, REH, MEC-1, Ramos also for ILR2
From the text: (§1) CTL derived from healthy HLA-A*0201^+ individuals were generated using a protocol described elsewhere (Zeis M, Siegel S, Schmitz M et al. Induction of cytotoxic T lymphocytes against hematologic neoplasms by survivin RNA-transfected dendritic cells. J Immunol. 2003; 170, 5391-5397.). For the induction of autologous OFA/ILR, peptide-specific CTL obtained from patients with AML and CLL, CD8^+ T cells were separated from PBMC using immunomagnetic beads (MACS®, Miltenyi, Bergisch-Gladbach, Germany), cultured with autologous OFA/iLR peptide-pulsed fully matured DC and restimulated with autologous peptide-pulsed PBMC in the presence of IL-2 (1 ng/ml, CellConcepts, Weisskirch, Germany). After at least four weekly restimulations, CTL reactivity was determined in a conventional 4 h ^51Chromium release assay. Cold target inhibition assays and antibody blocking experiments were performed as previously described (Zeis M, Siegel S, Schmitz M et al. Induction of cytotoxic T lymphocytes against hematologic neoplasms by survivin RNA-transfected dendritic cells. J Immunol. 2003; 170, 5391-5397.).
T cells recognizing the ILR1-peptide were tested on K562 [human pro-erythroblastic leukemia cell-line, also known as chronic myelogenous leukemia (CML) cell line, which, due to extremely low levels of HLA, functions as a control for excluding NK cells as effector cells], IND (human B lymphoblastoid cell line), Karpas-422 (human B cell lymphoma), Balm-3 (human non-Burkitt B-lymphoma cell line), U266 (human multiple myeloma), REH (Human B cell precursor leukemia), MEC-1 (human chronic B cell leukemia). The same T cells were used to test autologous and allogeneic PBMC from healthy donors as controls. […] The response is not directed against allogeneic major or minor histocompatibility complex antigens. • 3. ILR1 peptide is recognized in an HLA-restricted fashion. • 4. The restriction is allele-specific (specific for A*02). Target: AML
T cells recognizing the ILR2-peptide (FIG. 6) were tested on K562 [human proerythroblastic leukemia cell-line, also known as chronic myelogenous leukemia (CML) cell line, which, due to extremely low levels of HLA, functions as a control for excluding NK cells as effector cells], IM9 (human B lymphoblastoid cell line), Karpas-422 (human B cell lymphoma), Balm-3 (human non-Burkitt B-lymphoma cell line), U266 (human multiple myeloma), REH (Human B cell precursor leukemia), Ramos (synonym: RA 1; a human Burkittt's lymphoma B lymphoblast), MEC-1 (human chronic B cell leukemia). The same T cells were used to test autologous and allogeneic PBMC from healthy donors as controls.

[2] = target: T1, HLA-A*0201 (Homo sapiens, UniProt P04439, /I218V/L300P/L318F/N151K/N90K/P208A/P217A/Q86G/Q94H/R138H/R169H/T345S); assay: T2 whole cell-binding assay (in vitro reconstitution assay, TAP-deficient T2 cell line); conditions: compared with the Flu nucleoprotein58-66
T1 construct: using the TAP (transporter associated with antigen processing)-deficient T2 cell line; host or cells: T2 (human, TAP-deficient)

[3] = tested on: tumor cells from AML patients; assay: 51Chromium release assay, peptide-specific CTL on tumor cells from AML patients; type: cell-based, human; conditions: for recognition of AML cells from A*02-negative patients by peptide-specific T cells / recognition of AML cells from A*02-positive patients by peptide-specific T cells: 1st and 2nd experiment; for A*02-positive AML patients in whom the peptide is a tumor-associated antigen: summary of two sets of experiments
From the text: as §1
T cells specific for HLA-A*02-restricted ILR1 were tested on tumor cells from AML patients (4 patients; samples AML-01, -02, -03, -06) (FIG. 4A). Cells from A*02-positive patients (3/4) were recognized with maximum lysis at an E:T ratio of 40:1 ranging between 25,9% and 39,8%.
T cells specific for HLA-A*02-restricted ILR1 were tested on tumor cells from AML patients for a second time to confirm the results obtained in the 1st experiment (9 patients; samples AML-01, -02, -04, -05, -06, -07, -09, -10, -12).
T cells specific for HLA-A*02-restricted ILR2 were tested on tumor cells from AML patients (8 patients; samples AML-01, -02, -04, -05, -06, -07, -10, -12). […] The experiment was conducted a 2nd time with samples from patients […]. In this 2nd experiment, T cells specific for HLA-A*02-restricted ILR2 were tested again on tumor cells from AML patients (4 patients; samples AML-01, -02, -03, -06).

[4] = tested on: CD8+ T cells of HLA-A*0201+ individuals; assay: Generation of peptide-specific CTL lines with peptide-pulsed matured DC; type: cell-based, human; conditions: for generation of CTL lines from healthy HLA-A*0201+ donors: fully matured DC pulsed with the peptide; for generation of autologous peptide-specific CTL lines from patients: one patient with CLL and another with AML, tested against autologous and allogeneic HLA-A2-matched target cells
From the text: The identification of T-helper cell epitopes of tumor associated antigens remains an important task in anti-tumor immunotherapy. To identify T cell-binding epitopes deduced from the OFA-iLR protein, 14 peptides were synthesized (see below) that were predicted by the computer programs PAProC (http://www.uni-tuebingen.de/uni/kxi/) and SYFPEITHY (http://www.syfpeithi.de) to bind to the HLA-A*0201 molecule.
as §1

[5] = tested on: T cells of CLL patients (Binet A); assay: IL-10-secreting peptide-specific T cells in CLL patients with early disease; type: cell-based, human; conditions: small series of CLL patients with early disease (Binet A); data not shown
From the text: The inventors are currently involved with experiments to elucidate more precisely a possible relationship between the occurrence of anti-OFA/iLRP-specific T cells secreting IFN-γ or IL10 and the stage of disease in patients with CLL and multiple myeloma.

[6] = tested on: tumor cells from CLL patients; assay: 51Chromium release assay, peptide-specific CTL on tumor cells from CLL patients; type: cell-based, human; conditions: for A*02-positive CLL patients in whom the peptide is a tumor-associated antigen: summary of two experiments; for recognition of CLL cells from A*02-negative patients by peptide-specific T cells / recognition of CLL cells from A*02-positive patients by peptide-specific T cells: two experiments
From the text: as §1
T cells specific for HLA-A*02-restricted ILR1 were tested on tumor cells from CLL patients (5 patients; samples CLL-01, -02, -03, -05, -06). […] The experiment was repeated (FIG. 3A) with 8 more CLL patients, of whom 4/8 were A*02-positive. […] In summary: • 1. ILR1 is a tumor-associated antigen in 100% (7/7) of A*02-positive CLL patients tested. • 2. ILR1 is restricted by HLA-A*02. Target: T2
T cells specific for HLA-A*02-restricted ILR2 were tested on tumor cells from CLL patients (8 patients; samples CLL-01, -02, -03, -04, -05, -06, -07, -08). […] The experiment was repeated (FIG. 9B) with 5 more CLL patients, of whom 3/5 were A*02-positive. […] Conclusion-and-summary: • 1. ILR2 is a tumor associated antigen in 100% (7/7) of A*02-positive CLL patients tested. • 2. ILR2 is restricted by HLA-A*02. Target: T2

| Sequence | cytolytic activity of peptide-specific CTL lines [1] | recognition of cell lines by peptide-specific T cells [1] | binding affinity to HLA-A*0201 [2] | recognition of AML cells from A*02-negative patients by peptide-specific T cells [3] | recognition of AML cells from A*02-positive patients by peptide-specific T cells [3] | A*02-positive AML patients in whom the peptide is a tumor-associated antigen [3] | generation of CTL lines from healthy HLA-A*0201+ donors [4] | generation of autologous peptide-specific CTL lines from patients [4] | IL-10-secreting T cells specific for the peptide [5] | A*02-positive CLL patients in whom the peptide is a tumor-associated antigen [6] | recognition of CLL cells from A*02-negative patients by peptide-specific T cells [6] | recognition of CLL cells from A*02-positive patients by peptide-specific T cells [6] |
| --- | --- | --- | --- | --- | --- | --- | --- | --- | --- | --- | --- | --- |
| ALCNTDSPL (listed as Homo sapiens) [ILR2] | strong cytolytic activity | All cell lines except Ramos and MEC-1, which do not express the HLA-A*02 allele, and K562, which is deficient for HLA class I gene expression in general, were recognized | strong binding affinity | not recognized (4/4); also recorded: not recognized (0/1) | recognized in all cases (4/4) | 100% | CTL lines could be generated | could be generated eliciting efficient cytotoxic activity | no relevant IL-10-secreting T cells | 100% | not recognized in any case (0/4) and 0/2 A*02-negative target cells were recognized | recognized in all cases (4/4); also recorded: CLL cells from 3/3 A*02-positive patients were recognized |
| LLAARAIVAI (listed as Homo sapiens) [ILR1] | strong cytolytic activity | All cell lines except MEC-1, which does not express the HLA-A*02 allele, and K562, which is deficient for HLA class I gene expression in general, were recognized | strong binding affinity | not recognized (4/4) | recognized in all cases | 100% | CTL lines could be generated | could be generated eliciting efficient cytotoxic activity | no relevant IL-10-secreting T cells | 100% | recognized in any case (0/2) and 0/4 A*02-negative target cells were recognized | recognized-in-all cases (3/3); also recorded: CLL cells from 4/4 A*02-positive patients were recognized |
